# Experimental data taken from PubChem BioAssay AID563 (University of Pittsburgh Molecular Library Screening Center, 2006).
# Calls of active or inactive are those of the source. No rule for the calls is given here.
# Molecular target: Dual specificity protein phosphatase 1 (Homo sapiens) (UniProt P28562)
# Test: reproducibility of MKP-1 inhibition curves – biochemical, reproducibility testing, probe assessment, dose response (AID 563)
# Settings: recombinant MKP-1 phosphatase, fluorescence intensity
# Sequence of Dual specificity protein phosphatase 1 (Homo sapiens) (P28562 whole entry, looked up): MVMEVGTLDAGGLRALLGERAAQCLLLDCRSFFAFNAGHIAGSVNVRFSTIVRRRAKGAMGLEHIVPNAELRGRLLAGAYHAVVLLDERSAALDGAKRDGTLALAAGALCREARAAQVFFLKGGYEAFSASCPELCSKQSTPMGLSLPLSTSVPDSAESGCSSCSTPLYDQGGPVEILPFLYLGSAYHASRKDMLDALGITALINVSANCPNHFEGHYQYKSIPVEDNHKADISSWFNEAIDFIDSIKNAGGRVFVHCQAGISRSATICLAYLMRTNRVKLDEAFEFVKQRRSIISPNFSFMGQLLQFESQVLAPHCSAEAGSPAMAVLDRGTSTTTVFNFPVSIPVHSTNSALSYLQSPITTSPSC
row,SMILES,IC50
1,CCOC(=O)c1ccc2c(c1)C1C=CCC1C(C(=O)O)N2 (stereo not drawn),32.8 µM
2,Cc1nc2c(C(=O)NCCC3=CCCCC3)c[nH]n2c(=O)c1Cl,49.8 µM
3,Cc1ccc(-c2csc(NC(=O)c3ccno3)n2)cc1,49.7 µM
4,O=C1C(C2=C(O)c3ccccc3C2=O)=Nc2ccccc21,> 50 µM (inactive)
5,CC(C)Sc1nc2sc3c(c2c2nnc(SCC(=O)NCc4ccco4)n12)CCCC3,22.8 µM

# Further lines, results first:
row,IC50,SMILES
1,37 µM,CCCCCNC(=O)c1ccc2c(=O)[nH]c3c(C(=O)NCC4CCCO4)sc(=S)n3c2c1 (stereo not drawn)
2,17.1 µM,Cc1ccc(C)n1-c1cccc(C(=O)O)c1
3,46.9 µM,Cc1cccc(N2CCN(C(=O)Cc3c(C(=O)O)[nH]c4ccc(Cl)cc34)CC2)c1C
